Assay results from US8080632B2, “Peptide mimics of melanocyte stimulating hormone” (The Feinstein Institute for Medical Research, priority 2005, dated 2011).

Legend:
[1] = test system: Macrophage-like RAW cells; experiment: Structure function: inhibition of LPS (4 ng/ml)-stimulated TNF release; format: cell-based, murine; conditions: full range of the dose-response curve
[2] = test system: RAW cells; experiment: Cyclic-AMP production in RAW cells; format: cell-based, murine; conditions: FIG. 8

EFG-2: C-terminus of human mitochondrial EF-G2: TLTSGSATFALELSTYQAMNPQDQNTLLNRRSGLT (listed as Homo sapiens)
activity in suppressing TNF release relative to MECO-1 [1]: as active as MECO-1

adrenocorticotropic hormone (SYSMEHFRWGKPVGKKRRPVKVYPNGAEDESAEAFPLEF; mammalian melanocortin ACTH (1-39)) [obtained from Bachem Bioscience]
stimulation of cAMP production [2]: dose-dependent fashion
